Assay results as given in patent US10201530B2, “Treatment of BRCA1-defective cancer or resistant cancers” (City of Hope, priority 2014, dated 2019).

How the values were obtained:
zebrafish embryos = test: Zebrafish genotoxicity assay; type: in vivo, Danio rerio; settings: wild-type zebrafish embryos, COH29 0-100 μM
Method: Zebrafish (Danio rerio) were obtained from zebrafish Core facility of Taipei Medical University and maintained at 28° C. on a 14 h light/10 h dark cycle. Embryos were incubated at 28° C. and different developmental stages were determined as described (25). Wild-type embryos were treated with different concentrations of HU (0, 5, […], 20, 50 mM) or COH29 (0, 10, 20, 50, 100 μM) at 20 hpf to evaluate the mutagenic effect. Fifteen embryos were treated per well condition. […] Embryos were observed using an Olympus IX70-FLA inverted fluorescence microscope. Images were taken using SPOT digital camera system (Diagnostic Instruments, Sterling Heights, Mich., USA) and assembled with ImageJ software (26).

SKBR3 = test: Cytotoxicity, SKBR3 cells; type: cell-based, human; settings: Homo sapiens, SK-BR-3; SKBR3, ER− PR(−) HER2+
Method: (§1) All cell lines were acquired from the American Type Culture Collection (Manassas, Va., USA). Cells were maintained in RPMI 1640 medium (Mediatech) with 10% fetal bovine serum, 2 mM glutamine, and 100 U of penicillin and 100 μg of streptomycin per ml of medium (Sigma) at 37° C. in 5% CO2. To isolate HCC1437+BRCA1 cells, parental HCC1937 cells were transfected with pcDNA3.1 plasmid expressing full-length BRCA1 cDNA. Stable transfectant clones were selected and used for drug sensitivity assays. For stable transfection, cells at 30-40% confluence were incubated overnight with […] of plasmid DNA, using FUGENE® 6 transfectin reagent (Roche Molecular Biochemical, Monza, Italy) according to the manufacturer's instructions. Cells were then selected in puromycin (1 μg/ml) (Invitrogen life Technologies, La Jolla, Calif., USA.) After 20 to 30 days, viable puromycin-resistant colonies from HCC1937 transfections were expanded and screened. The clones that stably expressed […] and retained growth potential were assayed for BRCA1 expression by Western blot analysis. By Western blot analysis, we evaluated the restoration of BRCA1 expression in the puromycin-resistant cDNA/transfectant cells.
(§2) The MTT cytotoxicity assay was performed by incubating with MTT and monitoring the MTT formazan formed by viable cells with a microplate reader at a wavelength of 560 nm; the survival, ratio was determined using the formula: (Atest−Ablank)/(Acontrol−Ablank)×100%. The cytotoxicity was determined in 96-well plates using the semiautomatic fluorescence-based Digital Imaging Microscopy System (DIMSCAN). DIMSCAN uses digital imaging microscopy to quantify viable cells, which selectively accumulate FDA (fluorescein diacetate; Alfa Aesar, Ward Hill, Mass.). DIMSCAN is capable of measuring cytotoxicity over a 4 log dynamic range by quantifying total fluorescence per well (which is proportional to the number of viable cells) after elimination of the background fluorescence by digital thresholding and eosin Y (Mallinckrodt Baker, Center Valley, Pa.) quenching. […]

NHEJ pathway = test: NHEJ DNA repair, GFP-based chromosomal reporter EJ5-GFP; type: cell-based; settings: EJ5-GFP reporter cells, 24 h
Method: The EJ2 cells were generated to evaluate Alt-NHEJ through monitoring the fluorescence intensity of GFP and EJ5 cells were used to determine NJEJ as described previously. (23) Cells were seeded into 6-well plate and treated with COH29 or cisplatin at different concentration for 24 hours. The cells were then trypsinized, washed, and analyzed by flow cytometry.

KB-7D = test: Cytotoxicity, KB-7D cells; type: cell-based, human; settings: Homo sapiens, KB7D, cisplatin-resistant, read-out: IC50, mean ± SEM
Method: as §1
(§3) The MTT cytotoxicity assay was performed by incubating with MTT and monitoring the MTT formazan formed by viable cells with a microplate reader at a wavelength of 560 nm; the survival, ratio was determined using the formula: (Atest−Ablank)/(Acontrol−Ablank)×100%. The cytotoxicity was determined in 96-well plates using the semiautomatic fluorescence-based Digital Imaging Microscopy System (DIMSCAN). DIMSCAN uses digital imaging microscopy to quantify viable cells, which selectively accumulate FDA (fluorescein diacetate; Alfa Aesar, Ward Hill, Mass.). DIMSCAN is capable of measuring cytotoxicity over a 4 log dynamic range by quantifying total fluorescence per well (which is proportional to the number of viable cells) after elimination of the background fluorescence by digital thresholding and eosin Y (Mallinckrodt Baker, Center Valley, Pa.) quenching. Cells were seeded into 96-well plates in 100 μL of complete medium at 2,000 to 5,000 cells per well depending on cell line growth rate. After overnight incubation, test compound was added to each well at various concentrations in 50 μL of culture medium. After incubation with the drugs for 96 hours at 37° C., FDA (final concentration: 10 mg/mL) and eosin Y [final concentration: 0.1% (w/v)] were added to each well and the cells were incubated for an additional 20 minutes at 37° C. Total fluorescence per well was then measured using DIMSCAN, and the results were expressed as the ratio of the fluorescence in treated wells to the fluorescence in untreated wells (survival fraction).

OVCAR-3 = test: Cytotoxicity, OVCAR-3 cells; type: cell-based, human; settings: Homo sapiens, read-out: IC50, mean ± SEM
Method: as §1, §3

OVCAR-4 = test: Cytotoxicity, OVCAR-4 cells; type: cell-based, human; settings: Homo sapiens, read-out: IC50, mean ± SEM
Method: as §1, §3

HCC1937 + BRCA1 = test: Cytotoxicity, HCC1937+BRCA1 cells; type: cell-based, human; settings: Homo sapiens; HCC1937 + BRCA1, triple negative; COH29 72 h
Method: as §1, §2

UWB1.289 = test: Cytotoxicity, UWB1.289 cells; type: cell-based, human; settings: Homo sapiens, UWB1289; UWB1.289, BRCA1-defective ovarian cancer cells; COH29 72 h; read-out: IC50, mean ± SEM
Method: as §1
as §3, with “After incubation with the drugs for 96 hours at 37° C., FDA (final concentration: 10 mg/mL) and eosin Y [final concentration: 0.1% (w/v)] were added to each well and the cells were incubated for an additional 20 minutes at 37° C.” left out

HCC1937 tumors = test: Orthotopic tumor explant model, HCC1937; type: in vivo; settings: HCC1937 tumors in mammary fat pads of NSG mice, daily oral 400 mg/kg, 28 days
Method: Experiments in mice were conducted under a protocol approved by the IACUC of City of Hope. Because HCC1937 and HCC1937+BRCA1 cells from slow-growing tumors, they were implanted using MATRIGEL™ (Becton-Dickinson Biosciences). To establish tumors 4×10^6 cells in 200 μL serum-free medium containing 50% MATRIGEL™ were injected into the mammary fat pads around the inguinal area of a pair of 8 week old female NSG mice. Once the initial tenors reached 13 mm in diameter, they were dissected out minced into 3 mm pieces and implanted into the inguinal area of the mammary fat pads of the experimental mice Tumors were measured over a 28-day period, and for each time point, the student t-test was used to determine the statistical significance between daily gavage with 400 mg/kg COH29 in 30% solutol and corresponding vehicle control. The p value less than 0.05 (2 sides) was considered to indicate statistical significance

O=C(Nc1nc(-c2ccc(O)c(O)c2)c(-c2ccccc2)s1)c1ccc(O)c(O)c1 [COH29]
viability (zebrafish embryos): no developmental defects (FIG. 5C) or decrease in viability
developmental defects (zebrafish embryos; HU 0-50 mM): no developmental defects
IC50 (SKBR3): 13.28 ± 0.03 µM
NHEJ repair efficiency (NHEJ pathway): little effect on NHEJ repair
IC50 (KB-7D): 8.48 ± 0.27 µM
IC50 (OVCAR-3): 20.5 ± 0.81 µM
IC50 (OVCAR-4): 11.2 ± 1.51 µM
IC50 (HCC1937 + BRCA1): 35 ± 3.63 µM
IC50 (UWB1.289): 12.3 ± 1.15 µM
growth of tumors compared to vehicle (HCC1937 tumors): significantly (p=0.0007) suppressed
